Experimental data from ChEMBL document CHEMBL4706519, “Evaluation of N-phenyl-2-aminothiazoles for treatment of multi-drug resistant and intracellular Staphylococcus aureus infections” (Eur J Med Chem, 2020).
In brackets after ≈: the same amount, converted by molar mass.

What was measured:
[1] = test system: Staphylococcus epidermidis; experiment: Ratio of MBC to MIC for methicillin-resistant Staphylococcus epidermidis NRS101 assessed as inhibition of bacterial growth measured after 18 to 20 hrs by CLSI protocol based broth microdilution method; type: functional; details: time 18-20 hrs
[2] = Selectivity index, ratio of maximum non-toxic concentration for human Caco-2 cells to MIC for methicillin-resistant Staphylococcus aureus USA300 NRS384; type: toxicity
Listeria monocytogenes [3] = experiment: Antibacterial activity against Listeria monocytogenes ATCC 19111 assessed as inhibition of bacterial growth measured after 18 to 20 hrs by CLSI protocol based broth microdilution method; type: functional; details: time 18-20 hrs
[4] = Selectivity index, ratio of maximum non-toxic concentration for human Caco-2 cells to MIC for methicillin-resistant Staphylococcus aureus USA700 NRS386; type: toxicity
Streptococcus pneumoniae [5] = experiment: Antibacterial activity against methicillin-resistant Streptococcus pneumoniae ATCC 700677 assessed as inhibition of bacterial growth measured after 18 to 20 hrs by CLSI protocol based broth microdilution method; type: functional; details: time 18-20 hrs
Staphylococcus aureus [6] = experiment: microbe, parasite or virus in culture; details: USA500 NRS385
[7] = Selectivity index, ratio of maximum non-toxic concentration for human Caco-2 cells to MIC for methicillin-resistant Staphylococcus aureus USA500 NRS385; type: toxicity
Staphylococcus aureus [8] = experiment: microbe, parasite or virus in culture; details: NRS119
Staphylococcus aureus [9] = experiment: Bactericidal activity against methicillin-resistant Staphylococcus aureus USA400 NRS123 assessed as eradication of bacterial count at 5 times MIC incubated for 8 hrs in soy broth followed by incubation for 18 to 20 hrs on agar plate by time kill assay; type: functional; details: time 26-28 hrs
Staphylococcus aureus [10] = experiment: microbe, parasite or virus in culture; details: ATCC 6538
Staphylococcus aureus [11] = experiment: Antibacterial activity against methicillin-resistant Staphylococcus aureus USA400 NRS123 infected in mouse J774 cells assessed as log reduction in intracellular bacterial burden at 2 x MIC measured after 24 hrs; type: functional
Staphylococcus aureus [12] = experiment: Antibacterial activity against methicillin-resistant Staphylococcus aureus USA400 NRS123 infected in mouse J774 cells assessed as reduction in intracellular bacterial burden at 2 x MIC measured after 24 hrs relative to control; type: functional
Staphylococcus aureus [13] = experiment: Antibacterial activity against vancomycin-resistant Staphylococcus aureus 12 assessed as inhibition of bacterial growth measured after 18 to 20 hrs by CLSI protocol based broth microdilution method; type: functional; details: time 18-20 hrs
Staphylococcus aureus [14] = experiment: Ratio of MIC for methicillin-resistant Staphylococcus aureus USA400 NRS123 measured after 5th passage to MIC for methicillin-resistant Staphylococcus aureus USA400 NRS123 measured after 18 to 20 hrs by broth microdilution assay; type: functional
Streptococcus pneumoniae [15] = experiment: Antibacterial activity against cephalosporin-resistant Streptococcus pneumoniae ATCC 51916 assessed as inhibition of bacterial growth measured after 18 to 20 hrs by CLSI protocol based broth microdilution method; type: functional; details: time 18-20 hrs
Staphylococcus aureus [16] = experiment: Ratio of MBC to MIC against methicillin-sensitive Staphylococcus aureus NRS107 assessed as inhibition of bacterial growth measured after 18 to 20 hrs by CLSI protocol based broth microdilution method; type: functional; details: time 18-20 hrs
Staphylococcus aureus [17] = experiment: Antibacterial activity against methicillin-resistant Staphylococcus aureus USA400 NRS123 infected in mouse J774 cells assessed as log reduction in intracellular bacterial burden at 4 x MIC measured after 24 hrs; type: functional
[18] = test system: Staphylococcus epidermidis; experiment: Antibacterial activity against methicillin-resistant Staphylococcus epidermidis NRS101 assessed as inhibition of bacterial growth measured after 18 to 20 hrs by CLSI protocol based broth microdilution method; type: functional; details: time 18-20 hrs
Staphylococcus aureus [19] = experiment: microbe, parasite or virus in culture; details: USA700 NRS386
Enterococcus faecalis [20] = experiment: microbe, parasite or virus in culture; details: ATCC 51299
Staphylococcus aureus [21] = experiment: Antibacterial activity against vancomycin-resistant Staphylococcus aureus 10 assessed as inhibition of bacterial growth measured after 18 to 20 hrs by CLSI protocol based broth microdilution method; type: functional; details: time 18-20 hrs
[22] = Cytotoxicity against human Caco-2 cells assessed as cell viability at 32 ug/ml incubated for 2 hrs by MTS assay relative to control; type: cell-based; details: at 32 µg/mL, read-out: Activity
Staphylococcus aureus [23] = experiment: Bactericidal activity against methicillin-resistant Staphylococcus aureus USA400 NRS123 assessed as post-antibiotic effect at 5 times MIC incubated for 2 hrs followed by compound wash-out by viable plate count method; type: functional
Staphylococcus aureus [24] = experiment: microbe, parasite or virus in culture; details: USA400 NRS123
[25] = Selectivity index, ratio of maximum non-toxic concentration for human Caco-2 cells to MIC for methicillin-resistant Staphylococcus aureus NRS119; type: toxicity
Enterococcus faecium [26] = experiment: Antibacterial activity against vancomycin-resistant Enterococcus faecium ATCC 700221 assessed as inhibition of bacterial growth measured after 18 to 20 hrs by CLSI protocol based broth microdilution method; type: functional; details: time 18-20 hrs
Escherichia coli [27] = experiment: Antibacterial activity against wild type Escherichia coli BW25113 assessed as inhibition of bacterial growth measured after 18 to 20 hrs by broth microdilution method; type: functional; details: time 18-20 hrs
Enterococcus faecium [28] = experiment: Ratio of MBC to MIC for vancomycin-resistant Enterococcus faecium ATCC 700221 assessed as inhibition of bacterial growth measured after 18 to 20 hrs by CLSI protocol based broth microdilution method; type: functional; details: time 18-20 hrs
Staphylococcus aureus [29] = experiment: microbe, parasite or virus in culture; details: NRS107
Staphylococcus aureus [30] = experiment: Bactericidal activity against methicillin-resistant Staphylococcus aureus USA400 NRS123 assessed as log reduction in viable bacteria count at 5 times MIC incubated for 2 hrs in soy broth followed by incubation for 18 to 20 hrs on agar plate by time kill assay; type: functional; details: time 20-22 hrs
Staphylococcus aureus [31] = experiment: Ratio of MIC for methicillin-resistant Staphylococcus aureus USA400 NRS123 measured after 11th passage to MIC for methicillin-resistant Staphylococcus aureus USA400 NRS123 measured after 18 to 20 hrs by broth microdilution assay; type: functional
Staphylococcus aureus [32] = experiment: Ratio of MBC to MIC against methicillin-sensitive Staphylococcus aureus ATCC 6538 assessed as inhibition of bacterial growth measured after 18 to 20 hrs by CLSI broth microdilution method; type: functional; details: time 18-20 hrs
Staphylococcus aureus [33] = experiment: Antibacterial activity against methicillin-resistant Staphylococcus aureus USA400 NRS123 infected in mouse J774 cells assessed as reduction in intracellular bacterial burden at 4 x MIC measured after 24 hrs relative to control; type: functional
Streptococcus pneumoniae [34] = experiment: Ratio of MBC to MIC for methicillin-resistant Streptococcus pneumoniae ATCC 700677 assessed as inhibition of bacterial growth measured after 18 to 20 hrs by CLSI protocol based broth microdilution method; type: functional; details: time 18-20 hrs
Staphylococcus aureus [35] = experiment: Antibacterial activity against methicillin-resistant Staphylococcus aureus USA300 NRS384 assessed as inhibition of bacterial growth measured after 18 to 20 hrs by broth microdilution method; type: functional; details: time 18-20 hrs
Escherichia coli [36] = experiment: Antibacterial activity against Escherichia coli JW55031 harboring toIC efflux mutant assessed as inhibition of bacterial growth measured after 18 to 20 hrs by broth microdilution method; type: functional; details: time 18-20 hrs
Listeria monocytogenes [37] = experiment: Ratio of MBC to MIC for Listeria monocytogenes ATCC 19111 assessed as inhibition of bacterial growth measured after 18 to 20 hrs by CLSI protocol based broth microdilution method; type: functional; details: time 18-20 hrs
[38] = Cytotoxicity against mouse J774 cells assessed as cell viability at 32 ug/ml incubated for 2 hrs by MTS assay; type: cell-based; details: J774 cells, at 32 µg/mL, read-out: Activity
[39] = Selectivity index, ratio of maximum non-toxic concentration for human Caco-2 cells to MIC for methicillin-resistant Staphylococcus aureus USA400 NRS123; type: toxicity
Enterococcus faecalis [40] = experiment: Ratio of MBC to MIC for vancomycin-resistant Enterococcus faecalis ATCC 51299 assessed as inhibition of bacterial growth measured after 18 to 20 hrs by CLSI protocol based broth microdilution method; type: functional; details: time 18-20 hrs
[41] = Cytotoxicity against mouse J774 cells assessed as cell viability at 16 ug/ml incubated for 2 hrs by MTS assay relative to control; type: cell-based; details: at 16 µg/mL, read-out: Activity
Streptococcus pneumoniae [42] = experiment: Ratio of MBC to MIC for cephalosporin-resistant Streptococcus pneumoniae ATCC 51916 assessed as inhibition of bacterial growth measured after 18 to 20 hrs by CLSI protocol based broth microdilution method; type: functional; details: time 18-20 hrs

`C/C(=N\NC(=N)N)c1ccc(Nc2nc(-c3ccccc3)cs2)cc1` gave a Ratio [1] of 1, a selectivity ratio [2] of 16 and an MBC (Listeria monocytogenes [3]) of 4 µg/mL (≈ 11.4 µM). For the same molecule, the MIC (Listeria monocytogenes [3]) was 1 µg/mL (≈ 2.85 µM), the selectivity ratio [4] was 16 and the MBC (Streptococcus pneumoniae [5]) was 8 µg/mL (≈ 22.8 µM). It also gave an MIC (Streptococcus pneumoniae [5]) of 2 µg/mL (≈ 5.71 µM), an MBC (Staphylococcus aureus [6]) of 2 µg/mL (≈ 5.71 µM) and an MIC (Staphylococcus aureus [6]) of 2 µg/mL (≈ 5.71 µM). For the same molecule, the selectivity ratio [7] was 16, the MBC (Staphylococcus aureus [8]) was 4 µg/mL (≈ 11.4 µM) and the MIC (Staphylococcus aureus [8]) was 2 µg/mL (≈ 5.71 µM). For the same molecule, the Activity (Staphylococcus aureus [9]) was 100%, the MBC (Staphylococcus aureus [10]) was 2 µg/mL (≈ 5.71 µM) and the MIC (Staphylococcus aureus [10]) was 2 µg/mL (≈ 5.71 µM). For the same molecule, the Activity (Staphylococcus aureus [11]) was 1.07 log10CFU/ml, the “inhibition (INH)” value (Staphylococcus aureus [12]) was 88% and the MBC (Staphylococcus aureus [13]) was 4 µg/mL (≈ 11.4 µM). It also gave an MIC (Staphylococcus aureus [13]) of 2 µg/mL (≈ 5.71 µM), a Ratio (Staphylococcus aureus [14]) of 1 and an MBC (Streptococcus pneumoniae [15]) of 4 µg/mL (≈ 11.4 µM). For the same molecule, the MIC (Streptococcus pneumoniae [15]) was 2 µg/mL (≈ 5.71 µM), the Ratio (Staphylococcus aureus [16]) was 1 and the Activity (Staphylococcus aureus [17]) was 1.19 log10CFU/ml. The MBC [18] was 1 µg/mL (≈ 2.85 µM), the MIC [18] was 1 µg/mL (≈ 2.85 µM) and the MBC (Staphylococcus aureus [19]) was 8 µg/mL (≈ 22.8 µM). It also gave an MIC (Staphylococcus aureus [19]) of 2 µg/mL (≈ 5.71 µM), an MBC (Enterococcus faecalis [20]) of 4 µg/mL (≈ 11.4 µM) and an MIC (Enterococcus faecalis [20]) of 2 µg/mL (≈ 5.71 µM). The MBC (Staphylococcus aureus [21]) was 2 µg/mL (≈ 5.71 µM), the MIC (Staphylococcus aureus [21]) was 2 µg/mL (≈ 5.71 µM) and the viability at 2 h, 32 ug/ml [22] was 100%. It also gave a PAE (Staphylococcus aureus [23]) of 2 h, an MBC (Staphylococcus aureus [24]) of 2 µg/mL (≈ 5.71 µM) and an MIC (Staphylococcus aureus [24]) of 2 µg/mL (≈ 5.71 µM). The selectivity ratio [25] was 16, the MBC (Enterococcus faecium [26]) was 4 µg/mL (≈ 11.4 µM) and the MIC (Enterococcus faecium [26]) was 2 µg/mL (≈ 5.71 µM). The MIC (Escherichia coli [27]) was 8 µg/mL (≈ 22.8 µM), the Ratio (Enterococcus faecium [28]) was 1 and the MBC (Staphylococcus aureus [29]) was 4 µg/mL (≈ 11.4 µM). The MIC (Staphylococcus aureus [29]) was 1 µg/mL (≈ 2.85 µM), the Activity (Staphylococcus aureus [30]) was 3 log10CFU/ml and the Ratio (Staphylococcus aureus [31]) was 3. For the same molecule, the Ratio (Staphylococcus aureus [32]) was 1, the “inhibition (INH)” value (Staphylococcus aureus [33]) was 93% and the Ratio (Streptococcus pneumoniae [34]) was 1. It also gave an MIC (Staphylococcus aureus [35]) of 2 µg/mL (≈ 5.71 µM), an MIC (Escherichia coli [36]) of 4 µg/mL (≈ 11.4 µM) and a Ratio (Listeria monocytogenes [37]) of 1. It also gave a viability at 2 h, 32 ug/ml [38] of 100%, a selectivity ratio [39] of 16 and a Ratio (Enterococcus faecalis [40]) of 1. For the same molecule, the viability at 2 h, 16 ug/ml [41] was 100% and the Ratio (Streptococcus pneumoniae [42]) was 1.
